Laboratory results as given in US20250228824A1, “COMPOSITIONS AND METHODS FOR INHIBITION OF ITO AS TREATMENT FOR THE J WAVE SYNDROMES AND HYPOTHERMIA” (Lankenau Institute for Medical Research, priority 2021, published 2025).

Columns and labels:
KV11.1 (hERG-IKr) = biological target: T1, KV11.1 (hERG-IKr) (Homo sapiens, UniProt Q12809); assay: Whole-cell patch clamp of IKr in HEK cells stably expressing hERG; type: cell-based; settings: 50 μM
T1 construct: stably expressing hERG channels (NM_000238); expressed in transfected cells
Experimental: Human Embryonic Kidney (HEK) cells stably expressing hERG channels (NM_000238) were used to evaluate the effect of AR-787 on IKr. The HEK cells were cultured in vented flasks using standard methods. The culture media consisted of MEM α-modified, 10% FBS, 1% L-glutamine, 1% pen-strep and 0.4% G418 (Geneticin). Cells were passaged at 50% confluence.
For electrophysiological study, cells were released from culture with trypsin, rinsed with Ca^2+-free external solution and maintained on ice until used (up to 4 hr). An aliquot of cells was place in a chamber on an inverted microscope (Nikon Diaphot) and perfused with external solution at a rate of 1 ml/min at room temperature. The external solution contained in (mM): 140 NaCl, 5 KCl, 2 CaCl2, 1 MgCl2, 10 HEPES and 10 glucose at pH 7.4 (adjusted with NaOH). Membrane currents recorded with an Axopatch 200B amplifier controlled by Clampex software were digitized at a sampling rate of 10 kHz and filtered at 2 kHz. Micropipettes were fabricated from borosilicate glass and generally had resistances of 1.8-2.4 MΩ when filled with internal solution consisting of (mM): 140 KCl, 1 MgCl2, 5 Na2ATP, 10 HEPES and 10 EGTA (pH 7.3 adjusted with KOH; 300 mOsm). Pipette offset and stray capacitance were compensated with the pipette in the bath solution before seal formation. After achieving cell access, whole-cell capacitance and series resistance were compensated optimally. Series resistance prediction and correction were usually adjusted to 85% or higher leaving an uncompensated series resistance of less than 1 MΩ and voltage errors estimated to be less than 5 mV. Voltage protocols and currents were recorded on a computer for offline analysis using Clampfit and GraphPad software.
IKr was measured using a two-step protocol. Voltage steps of 4 sec duration were applied at 20 sec intervals from a holding potential of −80 mV to −60 to +40 mV in 10 mV steps, followed by a 4 sec step to −50 mV to record the tail currents. […] The step protocol consisted of a voltage step from a holding potential of −80 mV to a test potential of +10 mV for 4 sec then to −50 mV for 4 second. It was repeated at 20 sec intervals. The step protocol was maintained until the current response achieved a stable level (5-7 min). The I-V protocol was then repeated.
For analysis, the following were determined: 1) currents averaged over the last 100 ms of the first voltage clamp step (−60 to +40 mV) and 2) peak tail current during the second voltage clamp step (at −50 mV). These were divided by cell capacitance to normalize for cell size (pA/pF). The time course of tail current […] was fit with a single exponential function using Clampfit. The voltage dependence of activation was determined from tail currents by dividing current value at each voltage by the maximum value for each I-V protocol. Values of current were averaged among cells and expressed as a mean ±SEM.

Nav1.5 = biological target: T2, Nav1.5 (Homo sapiens, UniProt Q14524); assay: Automated patch clamp (Qube-384) of INa in HEK cells transfected with SCN5A+SCN1B; type: cell-based
T2 construct: expressed in transfected cells; host or cells: HEK cells, transfected with Lipofectamine 2000
Experimental: HEK cells transiently transfected with wild-type SCN5A (α subunit—Nav1.5) together with SCN1B (β1 subunit) using Lipofectamine 2000 were used to assess the effect of AR-787 on the cardiac sodium channel current (INa). All cells were incubated at 37° C./5% CO2. All cell culture reagents were purchased from Thermo Fisher Scientific (Waltham, MA).
The effect of AR-787 on cardiac sodium channel current was evaluated in HEK cells co-transfected with SCN5A and SCN1B. INa was measured in the whole-cell configuration using a Qube-384 (Sophion A/S, Copenhagen, Denmark) automated voltage clamp system. A flipped Na^+ gradient was used where the extracellular solution contained (in mM): 125 choline chloride, 1 NaCl, 5 KCl, 2 CaCl2, 1 MgCl2, 10 HEPES/NaOH, pH 7.4 (adjusted with NaOH), and the intracellular solution contained (in mM): 115 NaF, 15 CsCl2, 5 CsF, 3 Na2ATP, 0.3 Na2GTP, 2 MgCl2, 0.1 CaCl2, 10 EGTA, and 10 HEPES/CsOH, pH 7.2 (adjusted with NaOH). The currents were low-pass-filtered at 5 kHz and recorded at 25 kHz sampling frequency. Series resistance compensation was applied at 100%, and leak subtraction was enabled. Experiments were performed at room temperature (27° C.). Appropriate filters for cell membrane resistance (typically >500 MΩ), series resistance (<10 MΩ), and Nav current magnitude (>500 pA at a test pulse from a resting holding potential of −120 mV) were routinely applied to exclude poor quality cells. Vehicle (0.5% DMSO) controls were run on each plate to enable correction for any compound independent decrease of currents over time.
We used a double voltage-pulse protocol designed specifically to assess whether the compound is a potentiator, inhibitor, or both. The protocol assesses these parameters at both rest and partially inactivated holding potentials. Currents were assessed by a test pulse of 0 mV from a holding potential at rest (−120 mV) before preconditioning channels to their appropriate mid-potential (V1/2) values (NaV1.5 V1/2=−90 mV) for 10 s. Peak current, time constant of inactivation (τ inactivation) and persistent current were measured.
Time constants (τ) for fast inactivation onset were derived by fitting a single exponential function to the decay of current obtained from the depolarizing test pulse following a holding potential of −120 mV.
where I is current amplitude, Iss is the plateau amplitude, α is the amplitude at time 0 for time constant τ, and t is time. Persistent sodium current was measured during a 10 ms test pulse from −120 mV to 0 mV. It was calculated as a percentage of peak sodium current at 5 ms.

[1] = 50 μM, holding potential −120 mV
[2] = 50 μM, mid-voltage holding potential (NaV1.5 V1/2 = −90 mV)

T1 sequence (Q12809 whole entry): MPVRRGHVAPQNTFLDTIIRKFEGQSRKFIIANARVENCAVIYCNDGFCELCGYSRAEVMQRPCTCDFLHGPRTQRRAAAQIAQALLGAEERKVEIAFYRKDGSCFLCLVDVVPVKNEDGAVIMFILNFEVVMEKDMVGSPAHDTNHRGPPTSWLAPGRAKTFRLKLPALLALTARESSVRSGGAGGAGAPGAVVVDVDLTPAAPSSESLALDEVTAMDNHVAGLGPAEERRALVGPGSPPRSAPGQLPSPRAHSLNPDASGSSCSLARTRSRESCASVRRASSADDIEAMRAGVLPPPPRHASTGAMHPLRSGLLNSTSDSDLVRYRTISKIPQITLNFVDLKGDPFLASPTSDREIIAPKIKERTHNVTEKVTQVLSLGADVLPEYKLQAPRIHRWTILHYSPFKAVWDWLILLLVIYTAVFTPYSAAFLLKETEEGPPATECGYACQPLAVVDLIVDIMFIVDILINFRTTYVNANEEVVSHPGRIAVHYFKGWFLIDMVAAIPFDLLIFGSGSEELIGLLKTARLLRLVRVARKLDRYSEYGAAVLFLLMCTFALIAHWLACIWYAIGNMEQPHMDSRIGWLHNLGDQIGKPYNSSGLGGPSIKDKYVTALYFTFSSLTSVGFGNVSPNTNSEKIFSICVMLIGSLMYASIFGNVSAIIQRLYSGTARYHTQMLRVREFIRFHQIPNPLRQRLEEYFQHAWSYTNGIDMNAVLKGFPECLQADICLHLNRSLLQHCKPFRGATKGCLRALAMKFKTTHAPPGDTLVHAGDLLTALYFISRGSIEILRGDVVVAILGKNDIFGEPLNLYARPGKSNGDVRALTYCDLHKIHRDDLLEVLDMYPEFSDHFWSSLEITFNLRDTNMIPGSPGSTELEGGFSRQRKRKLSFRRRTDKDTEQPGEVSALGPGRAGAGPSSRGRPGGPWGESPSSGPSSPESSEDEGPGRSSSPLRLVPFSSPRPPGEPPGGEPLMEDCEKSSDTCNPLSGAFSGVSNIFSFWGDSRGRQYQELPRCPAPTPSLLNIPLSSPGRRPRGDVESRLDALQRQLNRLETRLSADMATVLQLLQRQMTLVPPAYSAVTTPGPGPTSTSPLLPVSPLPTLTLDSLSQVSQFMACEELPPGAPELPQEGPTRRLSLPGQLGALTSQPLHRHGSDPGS
T2 sequence (Q14524 whole entry): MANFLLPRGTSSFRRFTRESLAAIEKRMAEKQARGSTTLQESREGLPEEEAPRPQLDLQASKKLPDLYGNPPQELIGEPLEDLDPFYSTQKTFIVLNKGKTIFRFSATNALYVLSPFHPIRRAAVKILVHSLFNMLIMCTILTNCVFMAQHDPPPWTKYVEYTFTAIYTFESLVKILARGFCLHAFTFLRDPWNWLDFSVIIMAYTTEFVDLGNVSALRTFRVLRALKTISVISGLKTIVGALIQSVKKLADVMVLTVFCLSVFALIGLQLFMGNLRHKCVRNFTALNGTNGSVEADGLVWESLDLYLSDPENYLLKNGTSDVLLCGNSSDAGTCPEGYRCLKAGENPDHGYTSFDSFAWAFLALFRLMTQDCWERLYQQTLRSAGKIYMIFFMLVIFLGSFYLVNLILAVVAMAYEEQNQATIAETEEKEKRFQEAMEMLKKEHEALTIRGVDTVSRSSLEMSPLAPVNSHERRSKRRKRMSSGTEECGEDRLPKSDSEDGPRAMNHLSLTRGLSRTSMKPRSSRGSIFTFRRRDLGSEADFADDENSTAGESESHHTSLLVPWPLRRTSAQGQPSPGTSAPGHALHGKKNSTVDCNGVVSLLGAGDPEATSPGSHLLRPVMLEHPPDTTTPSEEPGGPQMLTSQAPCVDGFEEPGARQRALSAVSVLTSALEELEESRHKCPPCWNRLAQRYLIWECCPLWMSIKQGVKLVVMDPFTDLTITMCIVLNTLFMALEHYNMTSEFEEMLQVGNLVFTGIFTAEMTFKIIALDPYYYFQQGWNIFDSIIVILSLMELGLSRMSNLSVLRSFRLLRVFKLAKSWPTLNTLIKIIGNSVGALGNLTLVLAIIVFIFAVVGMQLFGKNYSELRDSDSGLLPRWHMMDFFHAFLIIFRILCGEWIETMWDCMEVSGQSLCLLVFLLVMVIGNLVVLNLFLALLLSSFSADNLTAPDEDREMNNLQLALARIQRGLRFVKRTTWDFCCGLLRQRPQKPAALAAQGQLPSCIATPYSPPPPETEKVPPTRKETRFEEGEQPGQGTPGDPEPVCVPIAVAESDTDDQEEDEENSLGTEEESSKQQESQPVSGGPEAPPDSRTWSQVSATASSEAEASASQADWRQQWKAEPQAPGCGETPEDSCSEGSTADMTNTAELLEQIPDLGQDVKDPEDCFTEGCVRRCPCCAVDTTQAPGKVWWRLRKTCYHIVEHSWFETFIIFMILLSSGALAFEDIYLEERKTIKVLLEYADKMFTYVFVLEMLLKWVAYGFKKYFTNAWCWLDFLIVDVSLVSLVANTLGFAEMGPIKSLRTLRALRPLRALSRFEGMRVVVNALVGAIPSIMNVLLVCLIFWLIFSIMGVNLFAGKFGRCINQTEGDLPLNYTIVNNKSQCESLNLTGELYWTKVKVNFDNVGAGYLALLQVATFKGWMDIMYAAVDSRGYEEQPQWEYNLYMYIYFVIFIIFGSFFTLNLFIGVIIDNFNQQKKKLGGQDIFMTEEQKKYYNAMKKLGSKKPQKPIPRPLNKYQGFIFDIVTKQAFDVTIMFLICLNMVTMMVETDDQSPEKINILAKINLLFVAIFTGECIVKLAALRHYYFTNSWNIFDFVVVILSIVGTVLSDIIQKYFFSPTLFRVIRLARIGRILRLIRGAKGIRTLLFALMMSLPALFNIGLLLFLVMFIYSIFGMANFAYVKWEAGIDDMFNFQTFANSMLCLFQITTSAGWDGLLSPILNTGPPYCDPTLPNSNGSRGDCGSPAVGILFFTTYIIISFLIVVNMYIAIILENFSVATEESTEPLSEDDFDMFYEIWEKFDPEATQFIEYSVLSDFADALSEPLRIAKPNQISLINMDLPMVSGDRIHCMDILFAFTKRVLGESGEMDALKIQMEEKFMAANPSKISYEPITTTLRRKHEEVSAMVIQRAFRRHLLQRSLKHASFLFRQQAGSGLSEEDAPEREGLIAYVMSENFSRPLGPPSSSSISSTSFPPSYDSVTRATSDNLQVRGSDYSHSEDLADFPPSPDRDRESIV
T2 sequence (Q07699 19-218 partner): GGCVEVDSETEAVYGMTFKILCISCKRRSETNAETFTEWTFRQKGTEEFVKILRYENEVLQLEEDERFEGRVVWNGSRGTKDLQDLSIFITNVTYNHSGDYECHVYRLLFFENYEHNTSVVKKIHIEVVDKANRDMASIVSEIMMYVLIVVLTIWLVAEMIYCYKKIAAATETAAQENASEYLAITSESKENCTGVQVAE

SMILES: Cc1nc(-n2cccc2)sc1C(=O)N=c1[nH]c2ccccc2[nH]1 [AR-787, N-(1H-benzimidazol-2-yl)-4-methyl-2-pyrrol-1-yl-thiazole-5-carboxamide]
- amplitude of the developing IKr (KV11.1 (hERG-IKr)): enhanced between −60 to −20 mV and reduced above 0 mV
- rates of inactivation of IKr tail currents (KV11.1 (hERG-IKr)): significantly slowed at positive voltages
- reduction in IKr peak tail current (KV11.1 (hERG-IKr)): 50%
- shift in the voltage dependence of both developing and tail currents (IKr) (KV11.1 (hERG-IKr)): −20 mV
- shift of voltage-dependence of activation (IKr) (KV11.1 (hERG-IKr)): −25 mV
- Normalized AUC (Nav1.5; 50 μM): 1.03 ± 0.06
- reduction of INa (Nav1.5; 50 μM, 0 mV test pulse from holding potential −120 mV): ~32%
- deceleration of fast inactivation kinetics (Nav1.5; 50 μM, holding potential −90 mV): this effect was abolished
- Normalized Inhibition (−120 mV) (Nav1.5; [1]): 0.32 ± 0.03
- Normalized τinactivation (−120 mV) (Nav1.5; [1]): 1.45 ± 0.07
- deceleration of fast inactivation kinetics (Nav1.5; [1]): ~1.5 fold
- Normalized Inhibition (−65 mV and −90 mV) (Nav1.5; [2]): 0.78 ± 0.02
- Normalized τinactivation (−65 mV and −90 mV) (Nav1.5; [2]): 1.11 ± 0.10
- Normalized Persistent Current (5 ms) (Nav1.5; 50 μM, percentage of peak sodium current at 5 ms, from −120 mV to 0 mV): 10.44 ± 3.30
- increase of late INa (persistent sodium current, percent of peak current) (Nav1.5; at 5 ms of a 10 ms depolarization to 0 mV from −120 mV): ~10%
